Assay results taken from paper PMC6934184, “Selective DNA-PKcs inhibition extends the therapeutic index of localized radiotherapy and chemotherapy” (The Journal of Clinical Investigation, 2019).

Target: T1, MAPKAPK5 (PRAK) (Homo sapiens, UniProt Q8IW41)
T1 construct: purchased Thermo Fisher Scientific (Life Technologies) SelectScreen
Test: SelectScreen Z'LYTE
Type: biochemical
Method in brief: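 SelectScreen broad panel; activity (Z'LYTE, Adapta) plus binding formats. ATP: Km app for CSF1R Z'LYTE; 10 for CAMK1 Adapta. Readout = % per kinase.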

T1 sequence (Q8IW41 whole entry): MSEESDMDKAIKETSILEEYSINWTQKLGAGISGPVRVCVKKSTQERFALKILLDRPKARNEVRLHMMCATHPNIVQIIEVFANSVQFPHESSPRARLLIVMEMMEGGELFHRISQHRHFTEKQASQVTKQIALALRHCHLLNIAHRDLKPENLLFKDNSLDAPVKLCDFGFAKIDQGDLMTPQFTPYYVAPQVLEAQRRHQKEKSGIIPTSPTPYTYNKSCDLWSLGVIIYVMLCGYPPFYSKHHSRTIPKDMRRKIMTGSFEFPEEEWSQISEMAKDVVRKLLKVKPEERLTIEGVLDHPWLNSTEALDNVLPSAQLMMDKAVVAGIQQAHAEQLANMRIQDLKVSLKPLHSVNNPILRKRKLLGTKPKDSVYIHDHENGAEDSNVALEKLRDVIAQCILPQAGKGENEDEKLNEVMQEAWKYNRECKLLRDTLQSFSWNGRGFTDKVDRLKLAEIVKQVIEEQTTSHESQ

Compound: CN(C(=O)CN1CCOCC1)c1ccc2sc3c(-c4cccc5c(=O)cc(N6CC7CCC(C6)O7)oc45)cccc3c2c1 [NU5455]
- inhibition at 1 µM: 0.6%
